Test results reported in patent publication US20130012432A1, “Peptides for Treatment of Obesity” (Novo Nordisk A/S, priority 2010, published 2013).
In brackets after ≈: the same amount, converted by molar mass. Positions of bridges follow the written chain, without caps; N, C: chain ends. Non-standard residues stand in square brackets, D forms with d. Residues, ends and D or L forms follow the SMILES beside them. Groups on a side chain read outwards from the residue. *: point of attachment. Palmitoyl(16-(5-tetrazolyl)) = O=C(CCCCCCCCCCCCCCCc1nnn[nH]1)*; Lys(CH2CO2H)2 = N[C@@H](CCCCN(CC(=O)O)CC(=O)O)C(=O)O; X1 = O=C(O)CCCCCCCCCCCCCCCCC(=O)NCCOCCOCCN*; C18 diacid = O=C(O)CCCCCCCCCCCCCCCCC(=O)*; C17 diacid = O=C(O)CCCCCCCCCCCCCCCC(=O)*; C14 diacid = O=C(O)CCCCCCCCCCCCC(=O)*; NTA = O=C(O)CN(CC(=O)O)CC(=O)*; hCys = N[C@@H](CCS)C(=O)O; Orn = NCCC[C@H](N)C(=O)O; Dab = NCC[C@H](N)C(=O)O; Dap = NC[C@H](N)C(=O)O; AEEA = NCCOCCOCC(=O)O

What was measured:
[1] = target: MC1 receptor (Homo sapiens, UniProt Q01726); assay: biochemical
Protocol: Assay (IV)—Melanocortin Receptor 1 (MC1) Binding Assay
The MC1 receptor binding assay was performed on BHK cell membranes stably expressing the MC1 receptor. The assay was performed in a total volume of 250 μl: 25 μl of ^125NDP-α-MSH (22 pM in final concentration), 25 μl of test compound/control and 200 μl of cell membrane (25 μg/ml). Test compounds were dissolved in DMSO. Radioactively labeled ligand, membranes and test compounds were diluted in buffer: 25 mM HEPES, pH 7.4, 0.1 mM CaCl2, 1 mM MgSO4, 1 mM EDTA, 0.1% HSA and 0.005% Tween™ 20. Alternatively, HSA may be substituted with ovalbumin. The samples were incubated at 30° C. for 90 min. in Costar round-bottom microtiter plates. Incubation was terminated by filtration on a Packard harvester filtermate. Rapid filtration through Packard Unifilter-96 GF/B filters pre-treated with polyetylenimine (PerkinElmer 6005277). The filters were washed with ice-cold 0.9% NaCl 8-10 times. The plates were air-dried at app. 55° C. for 30 min, and 50 μl Microscint 0 (Packard, cat. No. 6013616) was added to each well. The plates were counted in a Topcounter (1 min/well).
The data were analysed by non-linear regression analysis of binding curves, using the Windows™ program GraphPad™ Prism (GraphPad Software, USA).

[2] = physchem
Protocol: From a stock solution in vehicle, either H2O or 10 mM phosphate, containing 1 mg (as weighed) compound per ml, 8-11 aliquots are withdrawn and pH-adjusted individually with HCl/NaOH, to cover the whole pH range.

Chain of MC1 receptor (Q01726 whole entry): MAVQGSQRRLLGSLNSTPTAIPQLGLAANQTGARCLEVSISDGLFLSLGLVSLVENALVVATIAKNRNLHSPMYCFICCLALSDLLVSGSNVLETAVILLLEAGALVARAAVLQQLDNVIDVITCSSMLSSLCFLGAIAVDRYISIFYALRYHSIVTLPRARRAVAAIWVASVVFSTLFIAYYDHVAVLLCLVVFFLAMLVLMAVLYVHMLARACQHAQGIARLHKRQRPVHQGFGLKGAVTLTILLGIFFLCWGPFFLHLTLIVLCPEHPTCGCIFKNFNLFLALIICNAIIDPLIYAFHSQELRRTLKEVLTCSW

CC(=O)N[C@H]1CCCCNC(=O)CC[C@@H](C(=O)N2CCC[C@H]2C(=O)N2CCC[C@H]2C(=O)N[C@@H](Cc2c[nH]cn2)C(=O)N[C@@H](CCC(=O)O)C(=O)N[C@@H](CCCCN(CC(=O)O)CC(=O)O)C(=O)N[C@@H](CCCCNC(=O)COCCOCCNC(=O)CCCCCCCCCCCCCCCC(=O)O)C(N)=O)NC(=O)[C@H](Cc2c[nH]c3ccccc23)NC(=O)[C@H](CCCNC(=N)N)NC(=O)[C@@H](Cc2ccccc2)NC(=O)[C@H](Cc2c[nH]cn2)NC1=O [Example 7, Ac-c[Lys-His-D-Phe-Arg-Trp-Glu]-Pro-Pro-His-Glu-Lys(biscarboxymethyl)-Lys({2-[2-(16-carboxyhexadecanoylamino)ethoxy]ethoxy}acetyl)-NH2] (Ac-KH[dF]RWEPPHE[Lys(CH2CO2H)2]K([AEEA-C17 diacid])-NH2; lactam 1-6)
Ki [1]: > 10 µM
solubility ([2]; pH 5.8, Solubility Conc.): 121 µM (≈ 264 µg/mL)
solubility ([2]; pH 6.3, Solubility Conc.): 173 µM (≈ 378 µg/mL)
solubility ([2]; pH 6.6, Solubility Conc.): 295 µM (≈ 645 µg/mL)
solubility ([2]; pH 6.7, Solubility Conc.): 408 µM (≈ 892 µg/mL)
solubility ([2]; pH 6.9, Solubility Conc.): 434 µM (≈ 949 µg/mL)
solubility ([2]; pH 7.2, Solubility Conc.): 417 µM (≈ 911 µg/mL)
solubility ([2]; pH 7.4, Solubility Conc.): 438 µM (≈ 957 µg/mL)
solubility ([2]; pH 7.6, Solubility Conc.): 448 µM (≈ 979 µg/mL)
solubility ([2]; pH 8, Solubility Conc.): 436 µM (≈ 953 µg/mL)

CC(=O)N[C@H]1CCCCNC(=O)C[C@@H](C(=O)N2CCC[C@H]2C(=O)N[C@@H](CO)C(=O)N[C@@H](CO)C(=O)N[C@@H](CO)C(=O)N[C@@H](CCCCN(CC(=O)O)CC(=O)O)C(=O)N[C@@H](CO)C(=O)N[C@@H](CO)C(=O)NCCOCCOCCNC(=O)CCCCCCCCCCCCCCCCC(=O)O)NC(=O)[C@H](Cc2c[nH]c3ccccc23)NC(=O)[C@H](CCCNC(=N)N)NC(=O)[C@@H](Cc2ccccc2)NC(=O)[C@H](Cc2c[nH]cn2)NC1=O [Example 53, Ac-c[Lys-His-D-Phe-Arg-Trp-Asp]-Pro-Ser-Ser-Ser-Lys(biscarboxymethyl)-Ser-Ser-NH(2-{2-[2-(17-carboxyheptadecanoylamino)ethoxy]ethoxy}ethyl)] (Ac-KH[dF]RWDPSSS[Lys(CH2CO2H)2]SS-X1; lactam 1-6)
Ki [1]: > 10 µM
solubility ([2]; pH 6.6, Solubility Conc., pH 6.6, vehicle 10 mM phosphate): 82 µM (≈ 173 µg/mL)
solubility ([2]; pH 6.9, Solubility Conc., pH 6.9, vehicle 10 mM phosphate): 159 µM (≈ 336 µg/mL)
solubility ([2]; pH 7.2, Solubility Conc., pH 7.2, vehicle 10 mM phosphate): 337 µM (≈ 713 µg/mL)
solubility ([2]; pH 7.3, Solubility Conc., pH 7.3, vehicle 10 mM phosphate): 396 µM (≈ 838 µg/mL)
solubility ([2]; pH 7.4, Solubility Conc., pH 7.4, vehicle 10 mM phosphate): 410 µM (≈ 867 µg/mL)
solubility ([2]; pH 7.5, Solubility Conc., pH 7.5, vehicle 10 mM phosphate): 385 µM (≈ 814 µg/mL)
solubility ([2]; pH 7.7, Solubility Conc., pH 7.7, vehicle 10 mM phosphate): 393 µM (≈ 831 µg/mL)
solubility ([2]; pH 7.9, Solubility Conc., pH 7.9, vehicle 10 mM phosphate): 425 µM (≈ 899 µg/mL)
solubility ([2]; pH 8.2, Solubility Conc., pH 8.2, vehicle 10 mM phosphate): 403 µM (≈ 853 µg/mL)

CC(=O)N[C@H]1CCCCNC(=O)CC[C@@H](C(=O)N2CCC[C@H]2C(=O)N2CCC[C@H]2C(=O)N[C@@H](CCCNC(=N)N)C(=O)N[C@@H](CC(=O)O)C(=O)N[C@@H](CCCCN(CC(=O)O)CC(=O)O)C(=O)N[C@@H](CCCCNC(=O)COCCOCCNC(=O)CCCCCCCCCCCCCCCc2nnn[nH]2)C(N)=O)NC(=O)[C@H](Cc2c[nH]c3ccccc23)NC(=O)[C@H](CCCNC(=N)N)NC(=O)[C@@H](Cc2ccccc2)NC(=O)[C@H](Cc2c[nH]cn2)NC1=O [Example 21, Ac-c[Lys-His-D-Phe-Arg-Trp-Glu]-Pro-Pro-Arg-Asp-Lys(biscarboxymethyl)-Lys[(2-{2-[16-(tetrazol-5-yl)hexadecanoylamino]ethoxy}ethoxy)acetyl]-NH2] (Ac-KH[dF]RWEPPRD[Lys(CH2CO2H)2]K([AEEA-Palmitoyl(16-(5-tetrazolyl))])-NH2; lactam 1-6)
Ki [1]: > 10 µM
solubility ([2]; pH 5.3, Solubility Conc.): 38 µM (≈ 84.2 µg/mL)
solubility ([2]; pH 6, Solubility Conc.): 31 µM (≈ 68.7 µg/mL)
solubility ([2]; pH 6.3, Solubility Conc.): 36 µM (≈ 79.7 µg/mL)
solubility ([2]; pH 6.6, Solubility Conc.): 47 µM (≈ 104 µg/mL)
solubility ([2]; pH 7.2, Solubility Conc.): 90 µM (≈ 199 µg/mL)
solubility ([2]; pH 7.4, Solubility Conc.): 175 µM (≈ 388 µg/mL)
solubility ([2]; pH 7.5, Solubility Conc.): 276 µM (≈ 611 µg/mL)
solubility ([2]; pH 7.7, Solubility Conc.): 360 µM (≈ 797 µg/mL)
solubility ([2]; pH 7.9, Solubility Conc.): 366 µM (≈ 811 µg/mL)

CC(=O)N[C@H]1CCC(=O)NCCC[C@@H](C(=O)N2CCC[C@H]2C(=O)N2CCC[C@H]2C(=O)N[C@@H](CC(=O)O)C(=O)N[C@@H](CCCCN(CC(=O)O)CC(=O)O)C(=O)N[C@@H](CCCCNC(=O)COCCOCCNC(=O)CCCCCCCCCCCCCCCCC(=O)O)C(N)=O)NC(=O)[C@H](Cc2c[nH]c3ccccc23)NC(=O)[C@H](CCCNC(=N)N)NC(=O)[C@@H](Cc2ccccc2)NC(=O)[C@H](Cc2c[nH]cn2)NC1=O [Example 26, Ac-c[Glu-His-D-Phe-Arg-Trp-Orn]-Pro-Pro-Asp-Lys(biscarboxymethyl)-Lys({2-[2-(17-carboxyheptadecanoylamino)ethoxy]ethoxy}acetyl)-NH2] (Ac-EH[dF]RW[Orn]PPD[Lys(CH2CO2H)2]K([AEEA-C18 diacid])-NH2; lactam 1-6)
Ki [1]: > 10 µM
solubility ([2]; pH 5.5, Solubility Conc.): 49 µM (≈ 99.7 µg/mL)
solubility ([2]; pH 5.8, Solubility Conc.): 325 µM (≈ 661 µg/mL)
solubility ([2]; pH 6.1, Solubility Conc.): 474 µM (≈ 964 µg/mL)
solubility ([2]; pH 6.5, Solubility Conc.): 478 µM (≈ 972 µg/mL)
solubility ([2]; pH 6.8, Solubility Conc.): 461 µM (≈ 938 µg/mL)
solubility ([2]; pH 7.1, Solubility Conc.): 476 µM (≈ 968 µg/mL)
solubility ([2]; pH 7.4, Solubility Conc.): 482 µM (≈ 981 µg/mL)
solubility ([2]; pH 7.7, Solubility Conc.): 474 µM (≈ 964 µg/mL)
solubility ([2]; pH 7.9, Solubility Conc.): 478 µM (≈ 972 µg/mL)

CC(=O)N[C@H]1CCCNC(=O)CC[C@@H](C(=O)N2CCC[C@H]2C(=O)N[C@@H](CO)C(=O)N[C@@H](CCCCN)C(=O)N[C@@H](CCC(=O)O)C(=O)N[C@@H](CCC(=O)O)C(=O)N[C@@H](CO)C(=O)N[C@@H](CO)C(=O)N[C@@H](CCC(=O)O)C(=O)N[C@@H](CCCCNC(=O)COCCOCCNC(=O)CCCCCCCCCCCCCCCC(=O)O)C(N)=O)NC(=O)[C@H](Cc2c[nH]c3ccccc23)NC(=O)[C@H](CCCNC(=N)N)NC(=O)[C@@H](Cc2ccccc2)NC(=O)[C@H](Cc2c[nH]cn2)NC1=O [Example 20] (Ac-[Orn]H[dF]RWEPSKEESSEK([AEEA-C17 diacid])-NH2; lactam 1-6)
Ki [1]: > 10 µM
solubility ([2]; pH 6, Solubility Conc.): 192 µM (≈ 449 µg/mL)
solubility ([2]; pH 6.3, Solubility Conc.): 399 µM (≈ 934 µg/mL)
solubility ([2]; pH 6.4, Solubility Conc.): 410 µM (≈ 960 µg/mL)
solubility ([2]; pH 6.7, Solubility Conc.): 416 µM (≈ 974 µg/mL)
solubility ([2]; pH 7, Solubility Conc.): 420 µM (≈ 983 µg/mL)
solubility ([2]; pH 7.3, Solubility Conc.): 433 µM (≈ 1010 µg/mL)
solubility ([2]; pH 7.6, Solubility Conc.): 429 µM (≈ 1000 µg/mL)
solubility ([2]; pH 7.9, Solubility Conc.): 398 µM (≈ 932 µg/mL)
solubility ([2]; pH 8.2, Solubility Conc.): 439 µM (≈ 1030 µg/mL)

CC(=O)N[C@H]1CCNC(=O)C[C@@H](C(=O)N2CCC[C@H]2C(=O)N2CCC[C@H]2C(=O)N[C@@H](CCCNC(=N)N)C(=O)N[C@@H](CCC(=O)O)C(=O)N[C@@H](CCCCN(CC(=O)O)CC(=O)O)C(=O)N[C@@H](CO)C(=O)N[C@@H](CO)C(=O)NCCOCCOCCNC(=O)CCCCCCCCCCCCCCCCC(=O)O)NC(=O)[C@H](Cc2c[nH]c3ccccc23)NC(=O)[C@H](CCCNC(=N)N)NC(=O)[C@@H](Cc2ccccc2)NC(=O)[C@H](Cc2c[nH]cn2)NC1=O [Example 9, Ac-c[Dab-His-D-Phe-Arg-Trp-Asp]-Pro-Pro-Arg-Glu-Lys(biscarboxymethyl)-Ser-Ser-NH(2-{2-[2-(17-carboxyheptadecanoylamino)ethoxy]ethoxy}ethyl)] (Ac-[Dab]H[dF]RWDPPRE[Lys(CH2CO2H)2]SS-X1; lactam 1-6)
Ki [1]: > 10 µM
solubility ([2]; pH 4.7, Solubility Conc.): 26 µM (≈ 57.4 µg/mL)
solubility ([2]; pH 5.2, Solubility Conc.): 22 µM (≈ 48.6 µg/mL)
solubility ([2]; pH 5.3, Solubility Conc.): 40 µM (≈ 88.3 µg/mL)
solubility ([2]; pH 6.6, Solubility Conc.): 79 µM (≈ 174 µg/mL)
solubility ([2]; pH 7.3, Solubility Conc.): 158 µM (≈ 349 µg/mL)
solubility ([2]; pH 7.4, Solubility Conc.): 183 µM (≈ 404 µg/mL)
solubility ([2]; pH 7.7, Solubility Conc.): 242 µM (≈ 534 µg/mL)
solubility ([2]; pH 7.9, Solubility Conc.): 259 µM (≈ 572 µg/mL)
solubility ([2]; pH 8.2, Solubility Conc.): 280 µM (≈ 618 µg/mL)

CC(=O)N[C@H]1CCSSC[C@@H](C(=O)N2CCC[C@H]2C(=O)N2CCC[C@H]2C(=O)N[C@@H](CCCCN)C(=O)N[C@@H](CC(=O)O)C(=O)N[C@@H](CNC(=O)CN(CC(=O)O)CC(=O)O)C(=O)N[C@@H](CCCCNC(=O)COCCOCCNC(=O)CCCCCCCCCCCCC(=O)O)C(N)=O)NC(=O)[C@H](Cc2c[nH]c3ccccc23)NC(=O)[C@H](CCCNC(=N)N)NC(=O)[C@@H](Cc2ccccc2)NC(=O)[C@H](Cc2c[nH]cn2)NC1=O [Example 69, Ac-c[homoCys-His-D-Phe-Arg-Trp-Cys]-Pro-Pro-Lys-Asp-Dap(BCMA)-Lys({2-[2-(13-carboxytridecanoylamino)ethoxy]ethoxy}acetyl)-NH2] (Ac-[hCys]H[dF]RWCPPKD[Dap](NTA)K([AEEA-C14 diacid])-NH2; disulfide 1-6)
Ki [1]: > 10 µM
